# Legend:
# Assay type in all cases: cell-based
# [1] = tested on: Eucalyptus nodal sections; experiment: Acetosyringone in the co-cultivation medium, GUS staining of explants (Example 8)
# Description: The inclusion of a phenolic compound, acetosyringone, in the co-cultivation medium was tested. Eucalyptus nodal sections were infected with Agrobacterium containing the double 35S-GUS construct, as described in Example 5, and then allowed to co-cultivate on MS+0.4% glucose medium containing acetosyringone, as described in Example 5. Following co-cultivation, explants were placed onto bud induction/selection medium for subsequent growth. Explants were stained for GUS activity as in Example 5 at 4-5 weeks post-infection.
# [2] = tested on: stem segments from in vitro micropropagated shoot cultures of E. grandis x nitens clone 910.59; experiment: Adventitious bud induction from stem segments of different age at different BA concentrations (Example 1); details: NAA 0.01 mg/l, after 5 weeks in culture
# Description: (§1) The following examples are offered by way of illustration and not by way of limitation. Examples 1 to 3 describe experiments involving optimization of the regeneration and transformation protocols for Eucalyptus transformation. All refer to adventitious bud induction from stem segments obtained from in vitro micropropagated shoot cultures of E. grandis x nitens clone 910.59 (Fletcher Challenge Forests, Ltd., New Zealand). The tissue culture conditions in all examples, unless otherwise noted, were: temperature 20° C., 16 hour photoperiod, and cool white fluorescent lighting. These tissue culture conditions are generally preferred. All cultures were placed in 20×100 mm Petri dishes, 10 stem segments per dish.
# This experiment was designed to determine the best age of stem segments for adventitious bud induction. The basal medium used was full-strength Murashige and Skoog (MS) medium (Sigma M5519) and sucrose 30 g/l. The age of stem segments (apical, 1st, 2nd, 3rd and 4th nodes) were tested in combination with the concentrations of Benzylaminopurine (BA-1, 2 and 3 mg/l). All media contained Naphthalene acetic acid (NAA) at 0.01 mg/l.
# In vitro shoots of 3-4 cm were cut into single node segments. The leaves were removed prior to culture. Approximately twenty explants were cultured for each treatment. Cultures were transferred to fresh media every 3 weeks. Adventitious bud development assessments were done after 5 weeks in culture. The percentages of explants forming adventitious shoots for each treatment are listed below.
# [3] = tested on: stem segments from in vitro micropropagated shoot cultures of E. grandis x nitens clone 910.59; experiment: Kanamycin inhibition of adventitious bud formation on stem segments (Example 2); details: after 5 weeks in culture
# Description: as §1
# This experiment was designed to determine the optimal concentration of kanamycin to be used for selection of transformed bud tissues. Explants were cultured as described at the end of Example 1, in combination with kanamycin levels of 0, 5, 10, 25, 50 or 100 mg/l. In vitro shoots of 3-4 cm in size were cut into single node segments, and the appropriate segments used. All leaves were removed prior to culture. Approximately thirty explants were used for each treatment. Cultures were transferred to fresh medium after 3 weeks in culture, and the percentage of bud inhibition determined after 5 weeks in culture.
smiles,measurement,setting,value
"COc1cc(C(C)=O)cc(OC)c1O [Acetosyringone, acetosyringone]",% of Total GUS-Positive Explants in Buds,"[1]; 5 μM acetosyringone in MS+0.4% glucose co-cultivation medium, GUS staining 4-5 weeks post-infection",8%
same,effect on transformation efficiency,[1]; 5 μM acetosyringone in the co-cultivation medium,enhances transformation efficiency
"c1ccc(CNc2ncnc3[nH]cnc23)cc1 [BA, Benzylaminopurine]",percentages of explants forming adventitious shoots,"[2]; Apical Shoot Tips, BA 1 mg/l",25% (5/20)
same,percentages of explants forming adventitious shoots,"[2]; Apical Shoot Tips, BA 2 mg/l",5% (1/20)
same,percentages of explants forming adventitious shoots,"[2]; Apical Shoot Tips, BA 3 mg/l",33% (7/20)
same,percentages of explants forming adventitious shoots,"[2]; First Node, BA 1 mg/l",57% (12/21)
same,percentages of explants forming adventitious shoots,"[2]; First Node, BA 2 mg/l",35% (7/20)
same,percentages of explants forming adventitious shoots,"[2]; First Node, BA 3 mg/l",20% (4/20)
same,percentages of explants forming adventitious shoots,"[2]; Fourth Node, BA 1 mg/l",45% (9/20)
same,percentages of explants forming adventitious shoots,"[2]; Fourth Node, BA 2 mg/l",38% (8/21)
same,percentages of explants forming adventitious shoots,"[2]; Fourth Node, BA 3 mg/l",10% (2/20)
same,percentages of explants forming adventitious shoots,"[2]; Second Node, BA 1 mg/l",76% (16/21)
same,percentages of explants forming adventitious shoots,"[2]; Second Node, BA 2 mg/l",12% (6/20)
same,percentages of explants forming adventitious shoots,"[2]; Second Node, BA 3 mg/l",20% (4/20)
same,percentages of explants forming adventitious shoots,"[2]; Third Node, BA 1 mg/l",75% (15/20)
same,percentages of explants forming adventitious shoots,"[2]; Third Node, BA 2 mg/l",15% (3/20)
same,percentages of explants forming adventitious shoots,"[2]; Third Node, BA 3 mg/l",15% (3/20)
"NC[C@H]1O[C@H](O[C@H]2[C@H](O)[C@@H](O[C@H]3O[C@H](CO)[C@@H](O)[C@H](N)[C@H]3O)[C@H](N)C[C@@H]2N)[C@H](O)[C@@H](O)[C@@H]1O [Kanamycin, kanamycin]",inhibition at 5 µg/mL,"[3]; 840 h, kanamycin 5 mg/l, read-out: % Bud Inhibition Relative To Control",20%
same,inhibition at 10 µg/mL,"[3]; 840 h, kanamycin 10 mg/l, read-out: % Bud Inhibition Relative To Control",41%
same,inhibition at 25 µg/mL,"[3]; 840 h, kanamycin 25 mg/l, read-out: % Bud Inhibition Relative To Control",59%
same,inhibition at 50 µg/mL,"[3]; 840 h, kanamycin 50 mg/l, read-out: % Bud Inhibition Relative To Control",81%
same,inhibition at 100 µg/mL,"[3]; 840 h, kanamycin 100 mg/l, read-out: % Bud Inhibition Relative To Control",96%
same,% of Stem Segments Forming Adventitious Buds,[3]; kanamycin 5 mg/l,64% (18/28)
same,% of Stem Segments Forming Adventitious Buds,[3]; kanamycin 10 mg/l,47% (14/30)
same,% of Stem Segments Forming Adventitious Buds,[3]; kanamycin 25 mg/l,33% (10/30)
same,% of Stem Segments Forming Adventitious Buds,[3]; kanamycin 50 mg/l,15% (14/31)
same,% of Stem Segments Forming Adventitious Buds,[3]; kanamycin 100 mg/l,3% (1/30)

# — patent US20020016981A1, “Methods for producing genetically modified plants, plant materials and plant products produced thereby” (priority 1998, published 2002)
